# Source: patent US10975056B2 (GlaxoSmithKline Intellectual Property Development Limited, priority 2016, dated 2021)
# Structures can show the parent of a compound that is named as a salt.
# Key:
# DNMT1 = DNMT1 (Homo sapiens, UniProt P26358); assay: DNMT1 biochemical activity, breaklight assay and/or SPA assay; conditions: binned activity in either the breaklight or the SPA assay; for IC50: read-out: DNMT1 BioChemical (pIC50 category) (converted)
# [1] = tested on: erythroid progenitor cells (EPCs); assay: Fetal hemoglobin (HbF) ELISA in day 7 erythroid progenitor cells; format: cell-based, human; conditions: HbF ELISA, day 7 EPCs, 5 days; for EC50: Homo sapiens, Erythroid progenitor cell, read-out: EPC ELISA (pEC50 category) (converted);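 for all read-outs here: for fetal hemoglobin induction normalized to vehicle-treated cells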
# Summary of the method: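 HbF induction was read by anti-HbF sandwich ELISA (HRP/TMB, OD450) on lysates and normalized to vehicle-treated cells. Cells were day 7 erythroid progenitors derived from human bone marrow CD34+ cells, seeded at 1,000/well with 3 U/mL rhEPO. Compound was given for 5 days at 37 °C at final concentrations […].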
# Chain of DNMT1 (P26358 whole entry, looked up): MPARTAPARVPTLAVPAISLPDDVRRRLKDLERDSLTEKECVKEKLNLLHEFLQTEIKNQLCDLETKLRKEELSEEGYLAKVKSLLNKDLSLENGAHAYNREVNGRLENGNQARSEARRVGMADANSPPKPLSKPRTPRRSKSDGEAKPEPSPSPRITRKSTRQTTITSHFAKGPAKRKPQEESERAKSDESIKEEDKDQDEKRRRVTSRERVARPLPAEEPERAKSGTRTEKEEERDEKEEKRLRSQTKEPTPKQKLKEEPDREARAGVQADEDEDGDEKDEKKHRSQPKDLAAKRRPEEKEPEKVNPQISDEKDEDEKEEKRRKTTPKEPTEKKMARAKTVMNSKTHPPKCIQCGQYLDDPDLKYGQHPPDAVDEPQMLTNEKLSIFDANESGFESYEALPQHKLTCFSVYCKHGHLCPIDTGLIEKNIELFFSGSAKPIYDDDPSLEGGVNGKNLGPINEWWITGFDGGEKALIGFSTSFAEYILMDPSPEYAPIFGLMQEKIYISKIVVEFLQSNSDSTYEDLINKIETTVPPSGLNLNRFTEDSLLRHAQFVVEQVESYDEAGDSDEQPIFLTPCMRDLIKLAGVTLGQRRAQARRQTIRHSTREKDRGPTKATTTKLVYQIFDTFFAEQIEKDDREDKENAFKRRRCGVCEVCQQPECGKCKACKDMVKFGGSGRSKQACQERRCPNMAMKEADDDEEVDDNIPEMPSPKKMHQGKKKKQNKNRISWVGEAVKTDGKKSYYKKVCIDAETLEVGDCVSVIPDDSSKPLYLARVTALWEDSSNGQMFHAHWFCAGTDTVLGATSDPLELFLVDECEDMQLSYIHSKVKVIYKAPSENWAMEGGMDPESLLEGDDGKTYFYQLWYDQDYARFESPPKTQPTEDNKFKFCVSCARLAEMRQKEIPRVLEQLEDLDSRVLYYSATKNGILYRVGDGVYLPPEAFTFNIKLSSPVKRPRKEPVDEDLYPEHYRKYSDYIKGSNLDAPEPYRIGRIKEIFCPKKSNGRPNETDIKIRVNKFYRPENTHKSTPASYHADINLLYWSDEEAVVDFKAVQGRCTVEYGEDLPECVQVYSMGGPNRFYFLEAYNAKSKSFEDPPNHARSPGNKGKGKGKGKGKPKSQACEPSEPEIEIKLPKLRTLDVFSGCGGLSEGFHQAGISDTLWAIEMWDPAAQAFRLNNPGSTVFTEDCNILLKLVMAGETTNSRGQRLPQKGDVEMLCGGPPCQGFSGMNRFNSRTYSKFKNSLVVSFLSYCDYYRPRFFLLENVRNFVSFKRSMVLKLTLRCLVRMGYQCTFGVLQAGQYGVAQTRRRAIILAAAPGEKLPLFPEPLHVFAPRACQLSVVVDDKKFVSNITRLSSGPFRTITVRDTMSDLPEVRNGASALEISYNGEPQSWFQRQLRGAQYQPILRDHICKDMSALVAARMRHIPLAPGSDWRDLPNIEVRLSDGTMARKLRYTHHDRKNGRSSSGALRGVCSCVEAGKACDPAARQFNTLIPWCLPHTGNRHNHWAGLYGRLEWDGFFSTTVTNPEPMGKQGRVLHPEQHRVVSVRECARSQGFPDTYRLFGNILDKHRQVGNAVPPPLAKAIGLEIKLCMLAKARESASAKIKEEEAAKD
smiles,measurement,setting,value
"CCc1c(C#N)c(SC(C(N)=O)c2ccccc2)nc(N(C)Cc2n[nH]c(=O)[nH]2)c1C#N (centres unmarked) [Example 340, 2-((3,5-Dicyano-4-ethyl-6-(methyl((5-oxo-4,5-dihydro-1H-1,2,4-triazol-3-yl)methyl)amino)pyridin-2-yl)thio)-2-phenylacetamide]",DNMT1 BioChemical (pIC50 category),DNMT1,D (Category D: ≥6.5)
same,EC50,[1],1000 to 31600 nM
"CCc1c(C#N)c(SC(C(N)=O)c2ccccc2)nc(N2CCC(F)(CN)CC2)c1C#N (centres unmarked) [Example 618, 2-((6-(4-(aminomethyl)-4-fluoropiperidin-1-yl)-3,5-dicyano-4-ethylpyridin-2-yl)thio)-2-phenylacetamide hydrochloride]",DNMT1 BioChemical (pIC50 category),DNMT1,D (Category D: ≥6.5)
same,EC50,[1],< 316 nM
"CCc1c(C#N)c(SCc2csc(NC(C)=O)n2)nc(N2CCCN(C)CC2)c1C#N [Example 75, N-(4-(((3,5-Dicyano-4-ethyl-6-(4-methyl-1,4-diazepan-1-yl)pyridin-2-yl)thio)methyl)thiazol-2-yl)acetamide]",IC50,DNMT1,316 to 1000 nM
same,EC50,[1],> 31600 nM
"CCc1c(C#N)c(SC(C(N)=O)c2ccccc2)nc(N(C)CC(=O)N2C[C@H](O)[C@@H](O)C2)c1C#N (stereo partly drawn) [Example 660, 2-((3,5-dicyano-6-((2-((3S,4S)-3,4-dihydroxypyrrolidin-1-yl)-2-oxoethyl)(methyl)amino)-4-ethylpyridin-2-yl)thio)-2-phenylacetamide]",DNMT1 BioChemical (pIC50 category),DNMT1,D (Category D: ≥6.5)
same,EC50,[1],1000 to 31600 nM
"N#Cc1c(SC(C(N)=O)c2ccccc2)nc(N2CCC[C@H](O)C2)c(C#N)c1C1CC1 (stereo partly drawn) [Example 33, 2-(3,5-dicyano-4-cyclopropyl-6-((S)-3-hydroxypiperidin-1-yl)pyridin-2-ylthio)-2-phenylacetamide]",IC50,DNMT1,316 to 1000 nM
same,EC50,[1],316 to 1000 nM
"CC(C)(N)C(=O)NC1CCN(c2nc(SC(C(N)=O)c3ccccc3)c(C#N)c(C3CC3)c2C#N)CC1 (centres unmarked) [Example 374, 2-Amino-N-(1-(6-((2-amino-2-oxo-1-phenylethyl)thio)-3,5-dicyano-4-cyclopropylpyridin-2-yl)piperidin-4-yl)-2-methylpropanamide]",DNMT1 BioChemical (pIC50 category),DNMT1,D (Category D: ≥6.5)
same,EC50,[1],316 to 1000 nM
"CCc1c(C#N)c(SC(C(N)=O)c2ccccc2)nc(N2CCC(OCCOC(=O)[C@@H](N)C(C)C)CC2)c1C#N (stereo partly drawn) [Example 153, (2S)-2-((1-(6-((2-Amino-2-oxo-1-phenylethyl)thio)-3,5-dicyano-4-ethylpyridin-2-yl)piperidin-4-yl)oxy)ethyl 2-amino-3-methylbutanoate]",DNMT1 BioChemical (pIC50 category),DNMT1,D (Category D: ≥6.5)
same,EC50,[1],316 to 1000 nM
"CCc1c(C#N)c(SC(C(N)=O)c2ccccc2)nc(N(C)CC(=O)NCC2(CO)CC2)c1C#N (centres unmarked) [Example 673, 2-((6-((2-amino-2-oxo-1-phenylethyl)thio)-3,5-dicyano-4-ethylpyridin-2-yl)(methyl)amino)-N-((1-(hydroxymethyl)cyclopropyl)methyl)acetamide]",DNMT1 BioChemical (pIC50 category),DNMT1,D (Category D: ≥6.5)
same,EC50,[1],< 316 nM
"CCc1c(C#N)c(SC(C(N)=O)c2ccccc2)nc(N2CCC(O)(CO)CC2)c1C#N (centres unmarked) [Example 240, 2-((3,5-Dicyano-4-ethyl-6-(4-hydroxy-4-(hydroxymethyl)piperidin-1-yl)pyridin-2-yl)thio)-2-phenylacetamide]",IC50,DNMT1,316 to 1000 nM
same,EC50,[1],1000 to 31600 nM
"CCc1c(C#N)c(SC(C(N)=O)c2ccccc2)nc(N2CCC(NCc3cccc(OC)n3)CC2)c1C#N (centres unmarked) [Example 456, 2-((3,5-dicyano-4-ethyl-6-(4-(((6-methoxypyridin-2-yl)methyl)amino)piperidin-1-yl)pyridin-2-yl)thio)-2-phenylacetamide]",DNMT1 BioChemical (pIC50 category),DNMT1,D (Category D: ≥6.5)
same,EC50,[1],< 316 nM
"CCc1c(C#N)c(SCc2ccc(N3CCCCS3(=O)=O)cc2)nc(N2CCC(NCC(C)(C)C)CC2)c1C#N [Example 604, 2-((4-(1,1-dioxido-1,2-thiazinan-2-yl)benzyl)thio)-4-ethyl-6-(4-(neopentylamino)piperidin-1-yl)pyridine-3,5-dicarbonitrile]",DNMT1 BioChemical (pIC50 category),DNMT1,D (Category D: ≥6.5)
same,EC50,[1],> 31600 nM
CCc1c(C#N)c(SC(C(N)=O)c2cccc(F)c2F)nc(N2CC[C@H](O)C2)c1C#N (some centres unmarked) [Example 429],IC50,DNMT1,316 to 1000 nM
same,EC50,[1],316 to 1000 nM
"CCc1c(C#N)c(SC(C(N)=O)c2ccccc2)nc(N2CCC(NC(=O)C3(N)CCOCC3)CC2)c1C#N (centres unmarked) [Example 140, 4-Amino-N-(1-(6-((2-amino-2-oxo-1-phenylethyl)thio)-3,5-dicyano-4-ethylpyridin-2-yl)piperidin-4-yl)tetrahydro-2H-pyran-4-carboxamide, Trifluoroacetic Acid Salt]",DNMT1 BioChemical (pIC50 category),DNMT1,D (Category D: ≥6.5)
same,EC50,[1],< 316 nM
"CCc1c(C#N)c(S[C@@H](C(N)=O)c2ccccc2)nc(N2CC[C@@H](NC(=O)OC(C)(C)C)[C@H](O)C2)c1C#N [Example 542, tert-butyl((3R,4R)-1-(6-(((R)-2-amino-2-oxo-1-phenylethyl)thio)-3,5-dicyano-4-ethylpyridin-2-yl)-3-hydroxypiperidin-4-yl)carbamate*]",DNMT1 BioChemical (pIC50 category),DNMT1,D (Category D: ≥6.5)
same,EC50,[1],316 to 1000 nM
"CCc1c(C#N)c(SC(C(N)=O)c2ccc(F)cc2F)nc(N2CCC(N(C)C)CC2)c1C#N (centres unmarked) [Example 210, 2-((3,5-Dicyano-6-(4-(dimethylamino)piperidin-1-yl)-4-ethylpyridin-2-yl)thio)-2-(2,4-difluorophenyl)acetamide]",DNMT1 BioChemical (pIC50 category),DNMT1,D (Category D: ≥6.5)
same,EC50,[1],< 316 nM
"CCc1c(C#N)c(SC(C(N)=O)c2ccccc2)nc(N2CCC(n3ccnc3)CC2)c1C#N (centres unmarked) [Example 172, 2-((6-(4-(1H-Imidazol-1-yl)piperidin-1-yl)-3,5-dicyano-4-ethylpyridin-2-yl)thio)-2-phenylacetamide]",IC50,DNMT1,1000 to 31600 nM
same,EC50,[1],< 316 nM
"CCc1c(C#N)c(SC(C(N)=O)c2ccccc2)nc(N2CC(F)(CN)C2)c1C#N (centres unmarked) [Example 688, 2-((6-(3-(aminomethyl)-3-fluoroazetidin-1-yl)-3,5-dicyano-4-ethylpyridin-2-yl)thio)-2-phenylacetamide]",DNMT1 BioChemical (pIC50 category),DNMT1,D (Category D: ≥6.5)
same,EC50,[1],1000 to 31600 nM
"CCc1c(C#N)c(SCc2ccc(CN)cc2)nc(N2CCC(N3CCCC3)CC2)c1C#N [Example 68, 2-(4-(Aminomethyl)benzylthio)-4-ethyl-6-(4-(pyrrolidin-1-yl)piperidin-1-yl)pyridine-3,5-dicarbonitrile 2,2,2-trifluoroacetate]",IC50,DNMT1,316 to 1000 nM
same,EC50,[1],> 31600 nM
"CCc1c(C#N)c(SC(C(N)=O)c2ccccc2)nc(N(C)CC(=O)N(CCO)CCO)c1C#N (centres unmarked) [Example 668, 2-((6-((2-amino-2-oxo-1-phenylethyl)thio)-3,5-dicyano-4-ethylpyridin-2-yl)(methyl)amino)-N,N-bis(2-hydroxyethyl)acetamide]",DNMT1 BioChemical (pIC50 category),DNMT1,D (Category D: ≥6.5)
same,EC50,[1],316 to 1000 nM
CCc1c(C#N)c(SCc2ccc(CNC(C)=O)cc2)nc(N2CCNC(=O)C2)c1C#N [Example 329],IC50,DNMT1,316 to 1000 nM
same,EC50,[1],1000 to 31600 nM
"CCc1c(C#N)c(SC(C(N)=O)c2ccccc2)nc(N(C)CCN2CCCCC2)c1C#N (centres unmarked) [Example 478, 2-((3,5-dicyano-4-ethyl-6-(methyl(2-(piperidin-1-yl)ethyl)amino)pyridin-2-yl)thio)-2-phenylacetamide]",DNMT1 BioChemical (pIC50 category),DNMT1,D (Category D: ≥6.5)
same,EC50,[1],< 316 nM
"CCc1c(C#N)c(SC(C(N)=O)c2ccccc2)nc(N2CCCN(C)CC2)c1C#N (single isomer, unassigned; isomer 2) [Example 255, 2-((3,5-dicyano-4-ethyl-6-(4-methyl-1,4-diazepan-1-yl)pyridin-2-yl)thio)-2-phenylacetamide (Isomer 2)]",IC50,DNMT1,1000 to 31600 nM
same,EPC ELISA (pEC50 category),[1],C (Category C: 6.0 ≤ x < 6.5)
"CCc1c(C#N)c(SC(C(N)=O)c2ccccc2)nc(N2CC[C@@H](O)C2)c1C#N (stereo partly drawn) [Example 160, 2-((3,5-Dicyano-4-ethyl-6-((R)-3-hydroxypyrrolidin-1-yl)pyridin-2-yl)thio)-2-phenylacetamide]",IC50,DNMT1,1000 to 31600 nM
same,EC50,[1],1000 to 31600 nM
"CCc1c(C#N)c(SC(C(N)=O)c2ccccc2)nc(N2CCC(N)(CO)CC2)c1C#N (centres unmarked) [Example 242, 2-((6-(4-Amino-4-(hydroxymethyl)piperidin-1-yl)-3,5-dicyano-4-ethylpyridin-2-yl)thio)-2-phenylacetamide, Trifluoroacetic Acid Salt]",DNMT1 BioChemical (pIC50 category),DNMT1,D (Category D: ≥6.5)
same,EC50,[1],< 316 nM
"CSc1c(C#N)c(SCc2ccc(CNC(C)=O)cc2)nc(N2CCCN(C)CC2)c1C#N [Example 101, N-(4-(((3,5-Dicyano-6-(4-methyl-1,4-diazepan-1-yl)-4-(methylthio)pyridin-2-yl)thio)methyl)benzyl)acetamide]",DNMT1 BioChemical (pIC50 category),DNMT1,D (Category D: ≥6.5)
same,EC50,[1],316 to 1000 nM
"CCc1c(C#N)c(SCc2ccc3c(c2)C(=O)C(=O)N3)nc(N2CCCN(C)CC2)c1C#N [Example 348, 2-(((2,3-Dioxoindolin-5-yl)methyl)thio)-4-ethyl-6-(4-methyl-1,4-diazepan-1-yl)pyridine-3,5-dicarbonitrile]",IC50,DNMT1,316 to 1000 nM
same,EC50,[1],> 31600 nM
"CCc1c(C#N)c(SCc2ccc(NS(C)(=O)=O)cc2)nc(N(C)C)c1C#N [Example 287, N-(4-(((3,5-Dicyano-6-(dimethylamino)-4-ethylpyridin-2-yl)thio)methyl)phenyl) methanesulfonamide]",IC50,DNMT1,316 to 1000 nM
same,EC50,[1],1000 to 31600 nM
"CCc1c(C#N)c(SCc2ccc(CNC(C)=O)cc2)nc(N2CC(OC(=O)[C@@H](N)C(C)C)C2)c1C#N [Example 282, (S)-1-(6-((4-(Acetamidomethyl)benzyl)thio)-3,5-dicyano-4-ethylpyridin-2-yl)azetidin-3-yl 2-amino-3-methylbutanoate, Trifluoroacetic Acid Salt]",DNMT1 BioChemical (pIC50 category),DNMT1,D (Category D: ≥6.5)
same,EC50,[1],1000 to 31600 nM
